Reference: article PMC10220878 (Pharmaceutics, 2023)
Values joined by “and” are separate entries in the source; they are usually repeats but may differ in a detail not shown here. Identical values can stand only once. “Also recorded” adds a separate entry of the source. Blank lines part the entries; values can stand above or below the molecule they belong to.

Legend:
Oct-1 = details: cited from earlier work; for IC50: read-out: IC50 for 10 µM Metformin Uptake, Oct-1, 10 µM metformin
mouse primary astrocytes = experiment: MTS cell viability assay in mouse primary astrocytes; format: cell-based; details: 3 h, concentrations used in permeability studies (MF 1, 10, 20 mM; mitoxantrone 25 µM; corticosterone 150 µM)
Oct-2 = details: cited from earlier work; for IC50: read-out: IC50 for 10 µM Metformin Uptake, Oct-2, 10 µM metformin
bEnd.3 cells = experiment: MTS cell viability assay in bEnd.3 cells
Oct-3 = details: cited from earlier work; for IC50: read-out: IC50 for 10 µM Metformin Uptake, Oct-3, 10 µM metformin
hOCT2 = details: read-out: apparent IC50 of MF for uptake of tracer [14C] MF; cited from earlier work
[1] = human subjects; cited from earlier work
P-GP = molecular target: T1, P-GP (Homo sapiens, UniProt P08183); experiment: P-glycoprotein efflux transporter substrate assay (MDR1-MDCK transwell); format: in vitro ADME
T1 construct: host or cells: MDR1-MDCK (MDCK cells overexpressing MDR1)
T1 sequence (P08183 whole entry): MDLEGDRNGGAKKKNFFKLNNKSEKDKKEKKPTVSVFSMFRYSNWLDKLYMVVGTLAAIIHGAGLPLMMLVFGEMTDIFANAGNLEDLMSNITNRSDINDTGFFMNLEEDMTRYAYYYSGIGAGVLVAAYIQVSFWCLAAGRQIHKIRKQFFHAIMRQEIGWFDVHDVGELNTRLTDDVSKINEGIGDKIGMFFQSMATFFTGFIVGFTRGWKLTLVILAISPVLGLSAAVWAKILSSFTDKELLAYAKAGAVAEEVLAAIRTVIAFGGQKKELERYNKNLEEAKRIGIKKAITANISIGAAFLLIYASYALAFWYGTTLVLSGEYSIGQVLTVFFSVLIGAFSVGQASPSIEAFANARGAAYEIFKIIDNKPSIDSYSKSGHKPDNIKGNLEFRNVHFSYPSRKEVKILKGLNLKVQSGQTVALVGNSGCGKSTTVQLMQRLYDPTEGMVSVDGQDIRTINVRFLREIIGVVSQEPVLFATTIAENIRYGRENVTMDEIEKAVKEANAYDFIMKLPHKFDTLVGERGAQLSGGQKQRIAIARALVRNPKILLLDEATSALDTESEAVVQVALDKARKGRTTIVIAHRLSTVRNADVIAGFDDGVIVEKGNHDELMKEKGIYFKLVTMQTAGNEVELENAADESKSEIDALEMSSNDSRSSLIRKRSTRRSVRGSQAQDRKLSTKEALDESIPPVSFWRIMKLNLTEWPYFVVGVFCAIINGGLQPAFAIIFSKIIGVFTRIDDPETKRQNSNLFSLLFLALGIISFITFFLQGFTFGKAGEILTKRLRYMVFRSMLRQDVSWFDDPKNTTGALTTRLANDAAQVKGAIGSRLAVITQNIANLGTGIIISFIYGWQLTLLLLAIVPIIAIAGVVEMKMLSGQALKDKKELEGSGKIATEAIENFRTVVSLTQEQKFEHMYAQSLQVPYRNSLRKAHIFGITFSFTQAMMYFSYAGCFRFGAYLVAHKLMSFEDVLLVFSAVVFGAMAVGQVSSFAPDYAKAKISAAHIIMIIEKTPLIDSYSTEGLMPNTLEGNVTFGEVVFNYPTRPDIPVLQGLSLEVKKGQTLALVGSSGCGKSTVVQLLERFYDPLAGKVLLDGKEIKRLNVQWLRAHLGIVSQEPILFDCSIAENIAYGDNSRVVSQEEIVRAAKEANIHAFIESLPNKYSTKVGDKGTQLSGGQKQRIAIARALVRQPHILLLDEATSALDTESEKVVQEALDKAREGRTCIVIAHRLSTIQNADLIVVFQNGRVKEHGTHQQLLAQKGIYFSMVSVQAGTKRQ
Description: (§1) For P-GP efflux assay, MDR1-MDCK 12-well transport assay (MB Biosciences LLC, Natick, MA, USA) was used. The cells were maintained in high glucose DMEM media supplied with 10% FBS, non-essential amino acid, penicillin/streptomycin, L-glutamine, and colchicine as recommended by the supplier. After the shipping medium was changed to a fresh MDR1-MDCK cell culture medium, the plate was kept in the incubator for 24 h before performing the experiment. […] The inhibitor was present on both sides of the compartments during pre-incubation of 30 min and during the transport experiment. After 120 min of incubation at 37 °C, samples were collected from the basolateral chamber and quantified by LC-MS/MS method. […] The permeability coefficient (PC, cm/s) was calculated using the published literature method. The PC value from apical (A) to basolateral (B) compartment in the presence and absence of CsA was used to calculate the unidirectional flux ratio (UFR), which is defined by the following equation:(3) UFR=PC, A−to−B+CsA/PC,A−to−B−CsA

P-gp (MDR1) = molecular target: T2, P-gp (MDR1) (Homo sapiens, UniProt P08183); experiment: as above; format: in vitro ADME; details: dog, MDR1-MDCK, 10 µM MF, 120 min
T2 construct: host or cells: MDR1-MDCK (MDCK cells overexpressing MDR1)
T2 sequence (P08183 whole entry): as above
Description: as §1

[2] = tested on: in vitro co-culture model of BBB (bEnd.3 cells and mouse primary astrocytes); experiment: NaF permeability across BBB co-culture (barrier integrity); format: in vitro ADME; details: Figure S1
[3] = 3 h, concentrations used in permeability studies (MF 1, 10, 20 mM; mitoxantrone 25 µM; corticosterone 150 µM)
[4] = single transporter-expressing cell line, read-out: apparent Km of saturable MF uptake

Compound: C[C@]12C[C@H](O)[C@H]3[C@@H](CCC4=CC(=O)CC[C@@]43C)[C@@H]1CC[C@@H]2C(=O)CO [Corticosterone]
IC50 (Oct-1): 3.2 µM
toxicity to cells (MTS cell viability) (mouse primary astrocytes): not toxic
IC50 (Oct-2): 1.3 µM
toxicity to cells (MTS cell viability) (bEnd.3 cells; [3]): not toxic
IC50 (Oct-3): 0.2 µM

Metformin PC, A > B, +CsA (P-GP; MDR1-MDCK, 10 µM MF, 120 min, with CsA 10 µM): 3.28 ± 0.06 1 × 10^−7 cm/s
interaction with the efflux transporter P-GP (P-GP; P-GP overexpressing cell line): does not interact
Papp B→A at 120 min, 10 µM (P-gp (MDR1)): 0.163 ± 0.006 ×10⁻⁶ cm/s
Papp A→B at 120 min, 10 µM (P-gp (MDR1); without CsA): 0.258 ± 0.018 ×10⁻⁶ cm/s
Compound: CN(C)C(=N)N=C(N)N [MF, metformin]
Km (Oct-1; [4]): 3100 µM
IC50 (hOCT2): ~2000 µM
toxicity to cells (MTS cell viability) (mouse primary astrocytes): not toxic
steady-state concentration [1]: 1.8 µg/mL and 13 µM
Km (Oct-2; [4]): 600 µM
toxicity to cells (MTS cell viability) (bEnd.3 cells; [3]): not toxic
Km (Oct-3; [4]): 2600 µM

Compound: C[n+]1ccc(-c2ccccc2)cc1 [MPP+]
toxicity to cells (MTS cell viability) (bEnd.3 cells; 5 mM, 4 h incubation): toxic; also recorded: significantly affected

Compound: O=C1c2c(O)ccc(O)c2C(=O)c2c(NCCNCCO)ccc(NCCNCCO)c21 [Mitoxantrone]
IC50 for Oct1 lower than for Oct2 and Oct3 (selectivity) (Oct-1; estimated IC50): 40–60 fold
inhibition of the respective transporter (Oct1) (Oct-1; mitoxantrone at 25 µM, based on Table 1): > 80%
IC50 (Oct-1): 3 µM
toxicity to cells (MTS cell viability) (mouse primary astrocytes): not toxic
IC50 (Oct-2): 135 µM
toxicity to cells (MTS cell viability) (bEnd.3 cells; [3]): not toxic
IC50 (Oct-3): 174 µM

Compound: O=C([O-])c1ccccc1-c1c2ccc(=O)cc-2oc2cc([O-])ccc12.[Na+].[Na+] [NaF, sodium fluorescein]
PC of NaF compared with [14C] sucrose [2]: no statistically significant difference

Compound: CNCCCN1c2ccccc2CCc2ccccc21 [desipramine]
toxicity to cells (MTS cell viability) (bEnd.3 cells; 200 µM, 4 h incubation): toxic; also recorded: significantly affected
toxicity to cells (MTS cell viability) (bEnd.3 cells; 100 µm, 4 h incubation): significantly affected
